# Results reported in patent US9062124B2, “GIP-based mixed agonists for treatment of metabolic disorders and obesity” (priority 2008, dated 2015).
# Read-outs that look alike come from different tables or passages of the source. Where a SMILES comes first, the peptide text is derived from it. Bridges are numbered along the chain shown (N, C = ends). Where no end group is shown, it is not given here. [ ]: non-standard residue; d: D form. PEG 40 kDa = PEG (40 kDa) covalently attached to Cys; Aib = CC(C)(N)C(=O)O
# Experiments:
# Format in all cases: cell-based
# glucagon receptor = molecular target: T1, glucagon receptor (Homo sapiens, UniProt P47871); assay: cAMP synthesis functional assay (firefly luciferase reporter in HEK293 cells), glucagon receptor
# T1 construct: expressed in transfected cells; host or cells: HEK293
# T1 sequence (P47871 26-477): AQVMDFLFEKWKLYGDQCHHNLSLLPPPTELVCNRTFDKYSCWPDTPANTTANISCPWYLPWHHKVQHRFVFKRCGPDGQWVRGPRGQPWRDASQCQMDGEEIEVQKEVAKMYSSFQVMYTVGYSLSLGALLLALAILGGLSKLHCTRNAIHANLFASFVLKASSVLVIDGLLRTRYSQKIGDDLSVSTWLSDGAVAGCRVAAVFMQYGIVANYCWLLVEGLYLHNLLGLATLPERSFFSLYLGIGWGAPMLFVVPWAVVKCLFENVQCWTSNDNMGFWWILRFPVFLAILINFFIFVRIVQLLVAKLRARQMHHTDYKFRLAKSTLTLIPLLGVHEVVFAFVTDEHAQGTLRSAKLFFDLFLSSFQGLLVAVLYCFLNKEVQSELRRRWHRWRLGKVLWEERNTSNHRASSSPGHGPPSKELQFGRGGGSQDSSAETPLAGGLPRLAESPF
# GLP-1 receptor = molecular target: T2, GLP-1 receptor (Homo sapiens, UniProt P43220); assay: cAMP synthesis functional assay (firefly luciferase reporter in HEK293 cells), GLP-1 receptor
# T2 construct: expressed in transfected cells; host or cells: HEK293
# T2 sequence (P43220 24-463, species assumed): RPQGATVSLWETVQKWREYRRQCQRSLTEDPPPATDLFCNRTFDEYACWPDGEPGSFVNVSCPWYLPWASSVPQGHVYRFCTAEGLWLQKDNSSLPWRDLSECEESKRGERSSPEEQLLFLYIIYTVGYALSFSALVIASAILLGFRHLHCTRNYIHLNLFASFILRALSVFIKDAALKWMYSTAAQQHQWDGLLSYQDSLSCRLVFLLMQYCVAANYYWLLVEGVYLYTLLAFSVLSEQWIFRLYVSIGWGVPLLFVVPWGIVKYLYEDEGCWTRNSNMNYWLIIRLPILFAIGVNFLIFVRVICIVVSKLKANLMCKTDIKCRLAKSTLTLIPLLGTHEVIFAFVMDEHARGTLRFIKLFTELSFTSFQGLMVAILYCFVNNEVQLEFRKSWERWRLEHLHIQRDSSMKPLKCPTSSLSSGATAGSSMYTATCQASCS
# GIP receptor = molecular target: T3, GIP receptor (Homo sapiens, UniProt P48546); assay: cAMP synthesis functional assay (firefly luciferase reporter in HEK293 cells), GIP receptor
# T3 construct: expressed in transfected cells; host or cells: HEK293
# T3 sequence (P48546 22-466): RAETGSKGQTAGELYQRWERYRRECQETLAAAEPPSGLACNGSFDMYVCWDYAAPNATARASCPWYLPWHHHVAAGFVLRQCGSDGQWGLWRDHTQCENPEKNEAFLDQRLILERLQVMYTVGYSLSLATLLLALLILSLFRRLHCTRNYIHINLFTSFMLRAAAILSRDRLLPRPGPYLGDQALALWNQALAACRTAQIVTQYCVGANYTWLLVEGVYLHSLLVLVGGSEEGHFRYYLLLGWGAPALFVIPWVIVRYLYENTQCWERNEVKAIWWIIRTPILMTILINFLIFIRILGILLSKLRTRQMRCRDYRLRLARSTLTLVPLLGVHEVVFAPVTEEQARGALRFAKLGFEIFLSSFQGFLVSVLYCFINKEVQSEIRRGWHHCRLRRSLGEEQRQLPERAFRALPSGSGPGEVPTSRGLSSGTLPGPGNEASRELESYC
# [1] = Table 4, relative to the native hormone
# [2] = Glucagon Receptor EC50, nM, Table 1
# [3] = Table 1, relative to the native hormone of the indicated receptor
# [4] = relative to the standard (Std.) EC50 of the same run
Compound,Glucagon Receptor relative activity (glucagon receptor; [3]) [%],GLP-1 Receptor relative activity (GLP-1 receptor; [3]) [%],GIP Receptor relative activity (GIP receptor; [3]) [%],other results
"mt-377: acylated PEG-linked dimer, acylation at position 40 of each monomer (YXEGTFTSDYSIYLDKQAAXEFVNWLLAGGPSSGAPPPSKC; PEG-linked dimer, acylated at position 40; Mt-377; homodimer; Xaa is Aib; 14 Carbon fatty acyl group covalently bound to Lysine; PEG (5kDa) covalently bound to Cysteine; C-terminal amidation; Cys residue covalently attached to 5 kDa PEG which is in turn covalently attached to a Cys residue of a second peptide having the same structure)",–,–,–,"Glucagon Receptor relative activity (glucagon receptor; [1]): 1.98%; EC50 (glucagon receptor; read-out: Glucagon Receptor EC50, Table 4): 3.9 nM; GLP-1 Receptor relative activity (GLP-1 receptor; [1]): 177.88%; GIP Receptor relative activity (GIP receptor; [1]): 138.11%"
CC[C@H](C)[C@H](NC(=O)[C@H](Cc1ccccc1)NC(=O)[C@H](CCC(=O)O)NC(=O)[C@@H]1CCCCNC(=O)CC[C@H](NC(=O)[C@H](CC(=O)O)NC(=O)[C@H](CC(C)C)NC(=O)[C@H](Cc2ccc(O)cc2)NC(=O)[C@@H](NC(=O)[C@H](CO)NC(=O)[C@H](Cc2ccc(O)cc2)NC(=O)[C@H](CC(=O)O)NC(=O)[C@H](CO)NC(=O)[C@@H](NC(=O)[C@H](Cc2ccccc2)NC(=O)[C@@H](NC(=O)CNC(=O)[C@H](CCC(N)=O)NC(=O)[C@H](CO)NC(=O)[C@@H](N)Cc2c[nH]cn2)[C@@H](C)O)[C@@H](C)O)[C@@H](C)CC)C(=O)N[C@@H]([C@@H](C)CC)C(=O)N[C@@H](Cc2c[nH]cn2)C(=O)N[C@@H](CCC(N)=O)C(=O)N1)C(=O)N[C@@H](C)C(=O)N[C@@H](Cc1c[nH]c2ccccc12)C(=O)N[C@@H](CC(C)C)C(=O)N[C@@H](CCSC)C(=O)N[C@@H](CC(N)=O)C(=O)N[C@H](C(N)=O)[C@@H](C)O [mt-62] (H-HSQGTFTSDYSIYLDEIHQKEFIAWLMNT-NH2; lactam 16-20; N-terminus assumed),42.22,40.00,1.60,EC50 (glucagon receptor; [2]): 0.45 nM
CC[C@H](C)[C@H](NC(=O)[C@H](CO)NC(=O)[C@H](CCCCN)NC(=O)[C@H](CC(=O)O)NC(=O)[C@H](CO)NC(=O)[C@@H](NC(=O)[C@H](Cc1ccccc1)NC(=O)[C@@H](NC(=O)CNC(=O)[C@H](CCC(=O)O)NC(=O)C(C)(C)NC(=O)[C@@H](N)Cc1ccc(O)cc1)[C@@H](C)O)[C@@H](C)O)C(=O)N[C@@H](Cc1ccc(O)cc1)C(=O)N[C@@H](CC(C)C)C(=O)N[C@@H](CC(=O)O)C(=O)N[C@@H](CCCCN)C(=O)N[C@@H](CCC(N)=O)C(=O)N[C@@H](C)C(=O)N[C@@H](C)C(=O)NC(C)(C)C(=O)N[C@@H](CCC(=O)O)C(=O)N[C@@H](Cc1ccccc1)C(=O)N[C@H](C(=O)N[C@@H](CS)C(=O)N[C@@H](Cc1c[nH]c2ccccc12)C(=O)N[C@@H](CC(C)C)C(=O)N[C@@H](CC(C)C)C(=O)N[C@@H](C)C(=O)NCC(=O)NCC(=O)N1CCC[C@H]1C(=O)N[C@@H](CO)C(=O)N[C@@H](CO)C(=O)NCC(=O)N[C@@H](C)C(=O)N1CCC[C@H]1C(=O)N1CCC[C@H]1C(=O)N1CCC[C@H]1C(=O)N[C@@H](CO)C(N)=O)C(C)C [mt-338] (H-Y[Aib]EGTFTSDKSIYLDKQAA[Aib]EFVCWLLAGGPSSGAPPPS-NH2; N-terminus assumed),–,–,–,"Glucagon Receptor relative activity (glucagon receptor; [4]): 0.01%; EC50 (GLP-1 receptor; GLP-1 Receptor EC50, cAMP luciferase reporter assay as in Example 16): 0.226 nM; GLP-1 Receptor relative activity (GLP-1 receptor; [4]): 2.70%; EC50 (GIP receptor; GIP Receptor EC50, cAMP luciferase reporter assay as in Example 16): 0.0234 nM; GIP Receptor relative activity (GIP receptor; [4]): 39.32%"
CC[C@H](C)[C@H](NC(=O)[C@H](CO)NC(=O)[C@H](Cc1ccc(O)cc1)NC(=O)[C@H](CC(=O)O)NC(=O)[C@H](CO)NC(=O)[C@@H](NC(=O)[C@H](Cc1ccccc1)NC(=O)[C@@H](NC(=O)CNC(=O)[C@H](CCC(N)=O)NC(=O)C(C)(C)NC(=O)[C@@H](N)Cc1ccc(O)cc1)[C@@H](C)O)[C@@H](C)O)C(=O)N[C@@H](Cc1ccc(O)cc1)C(=O)N[C@@H](CC(C)C)C(=O)N[C@@H](CC(=O)O)C(=O)N[C@@H](CCCCN)C(=O)N[C@@H](CCC(N)=O)C(=O)N[C@@H](C)C(=O)N[C@@H](C)C(=O)NC(C)(C)C(=O)N[C@@H](CCC(=O)O)C(=O)N[C@@H](Cc1ccccc1)C(=O)N[C@H](C(=O)N[C@@H](CC(N)=O)C(=O)N[C@@H](Cc1c[nH]c2ccccc12)C(=O)N[C@@H](CC(C)C)C(=O)N[C@@H](CCSC)C(=O)N[C@@H](CC(N)=O)C(=O)NCC(=O)NCC(=O)N1CCC[C@H]1C(=O)N[C@@H](CO)C(=O)N[C@@H](CO)C(=O)NCC(=O)N[C@@H](C)C(=O)N1CCC[C@H]1C(=O)N1CCC[C@H]1C(=O)N1CCC[C@H]1C(=O)N[C@@H](CO)C(=O)N[C@@H](CCCCN)C(N)=O)C(C)C [mt-356] (H-Y[Aib]QGTFTSDYSIYLDKQAA[Aib]EFVNWLMNGGPSSGAPPPSK-NH2; N-terminus assumed),–,–,–,Glucagon Receptor relative activity (glucagon receptor; [1]): 126.06%; GLP-1 Receptor relative activity (GLP-1 receptor; [1]): 224.02%; GIP Receptor relative activity (GIP receptor; [1]): 25.66%
"mt-202: glucagon analog peptide, C-terminal amide (Y[Aib]QGTFVSDYSIYLDEQAAKEFVNWLLAGGPSSGAPPPSC(PEG 40 kDa)-NH2; lactam 16-20)",2.84,0.18,1.32,"EC50 (glucagon receptor; read-out: Glucagon Receptor EC50, Table 1): 2.36 nM; EC50 (GLP-1 receptor; read-out: GLP-1 Receptor EC50, Table 1): 15.7 nM; EC50 (GIP receptor; read-out: GIP Receptor EC50, Table 1): 2.2 nM"
Y[Aib]EGTFTSDYSIYLDEQAAKEFVNWLLAGKGKKNWLKHNITQC-NH2 (lactam 16-20) [mt-206],0.01,32.63,13.04,–

# More lines, main results first:
Glucagon Receptor relative activity (glucagon receptor; [3]) [%],GLP-1 Receptor relative activity (GLP-1 receptor; [3]) [%],GIP Receptor relative activity (GIP receptor; [3]) [%],Compound,other results
185.71,0.16,0.74,CC[C@H](C)[C@H](NC(=O)[C@H](Cc1ccccc1)NC(=O)[C@H](CCC(=O)O)NC(=O)[C@@H]1CCCCNC(=O)CC[C@H](NC(=O)[C@H](CC(=O)O)NC(=O)[C@H](CC(C)C)NC(=O)[C@H](Cc2ccc(O)cc2)NC(=O)[C@H](CCCCN)NC(=O)[C@H](CO)NC(=O)[C@H](Cc2ccc(O)cc2)NC(=O)[C@H](CC(=O)O)NC(=O)[C@H](CO)NC(=O)[C@@H](NC(=O)[C@H](Cc2ccccc2)NC(=O)[C@@H](NC(=O)CNC(=O)[C@H](CCC(N)=O)NC(=O)[C@H](CO)NC(=O)[C@@H](N)Cc2c[nH]cn2)[C@@H](C)O)[C@@H](C)CC)C(=O)N[C@@H]([C@@H](C)CC)C(=O)N[C@@H](Cc2c[nH]cn2)C(=O)N[C@@H](CCC(N)=O)C(=O)N1)C(=O)N[C@@H](C)C(=O)N[C@@H](Cc1c[nH]c2ccccc12)C(=O)N[C@@H](CC(C)C)C(=O)N[C@@H](CCSC)C(=O)N[C@@H](CC(N)=O)C(=O)N[C@H](C(N)=O)[C@@H](C)O [mt-107] (H-HSQGTFISDYSKYLDEIHQKEFIAWLMNT-NH2; lactam 16-20; N-terminus assumed),EC50 (glucagon receptor; [2]): 0.07 nM
0.53,0.17,0.02,CC[C@H](C)[C@H](NC(=O)[C@H](CO)NC(=O)[C@H](Cc1ccc(O)cc1)NC(=O)[C@H](CC(=O)O)NC(=O)[C@H](CO)NC(=O)[C@@H](NC(=O)[C@H](Cc1ccccc1)NC(=O)[C@@H](NC(=O)CNC(=O)[C@H](CCC(N)=O)NC(=O)C(C)(C)N)[C@@H](C)O)[C@@H](C)O)C(=O)N[C@@H](Cc1ccc(O)cc1)C(=O)N[C@@H](CC(C)C)C(=O)N[C@@H](CC(=O)O)C(=O)N[C@H]1CCC(=O)NCCCC[C@@H](C(=O)N[C@@H](CCC(=O)O)C(=O)N[C@@H](Cc2ccccc2)C(=O)N[C@H](C(=O)N[C@@H](CC(N)=O)C(=O)N[C@@H](Cc2c[nH]c3ccccc23)C(=O)N[C@@H](CC(C)C)C(=O)N[C@@H](CC(C)C)C(=O)N[C@@H](C)C(=O)NCC(N)=O)C(C)C)NC(=O)[C@H](C)NC(=O)[C@H](C)NC(=O)[C@H](CCC(N)=O)NC1=O [mt-198] (H-[Aib]QGTFTSDYSIYLDEQAAKEFVNWLLAG-NH2; lactam 15-19; N-terminus assumed),–
125.00,2.34,6.39,CC[C@H](C)[C@@H]1NC(=O)[C@@H](NC(=O)[C@H](CC(=O)O)NC(=O)[C@H](CC(C)C)NC(=O)[C@H](Cc2ccc(O)cc2)NC(=O)[C@H](CCCCN)NC(=O)[C@H](CO)NC(=O)[C@H](Cc2ccc(O)cc2)NC(=O)[C@H](CC(=O)O)NC(=O)[C@H](CO)NC(=O)[C@@H](NC(=O)[C@H](Cc2ccccc2)NC(=O)[C@@H](NC(=O)CNC(=O)[C@H](CCC(N)=O)NC(=O)[C@H](CO)NC(=O)[C@@H](N)Cc2ccc(O)cc2)[C@@H](C)O)[C@@H](C)O)CCC(=O)NCCCC[C@@H](C(=O)N[C@@H](CCC(=O)O)C(=O)N[C@@H](Cc2ccccc2)C(=O)N[C@H](C(=O)N[C@@H](CC(N)=O)C(=O)N[C@@H](Cc2c[nH]c3ccccc23)C(=O)N[C@@H](CC(C)C)C(=O)N[C@@H](CC(C)C)C(=O)N[C@@H](C)C(=O)N[C@@H](CCC(N)=O)C(N)=O)C(C)C)NC(=O)[C@H](CCC(N)=O)NC(=O)[C@H](Cc2c[nH]cn2)NC1=O [mt-118] (H-YSQGTFTSDYSKYLDEIHQKEFVNWLLAQ-NH2; lactam 16-20; N-terminus assumed),–
